This is an account of results in patent publication US5348960A, “Imidazo[4,5-b]quinolinyl oxy alkyl tetrazolyl piperidine derivatives” (Bristol-Myers Squibb Company, priority 1993, dated 1994).

Values after ≈ are worked out from the molar mass of the structure shown. Counter-ions that a name gives are not always drawn.

Series [1] concerns ADP-induced aggregation of human blood platelets. Briefly: cells. The format is cell-based. The conditions noted are these: Platelet, read-out: IC50 vs ADP in human PRP. The procedure: The aggregometer method of Born, C. V. R., J. Physiol., (London), 162, 67-68, (1962) as modified by Mustard, J. F., et al., J. Lab. Clin. Med., 64, 548-599, (1964) was used to assess the in vitro activity of the various compounds as to the inhibition of adenosine diphosphate (ADP) and collagen-induced platelet aggregation. The human volunteer donor's arm is cleansed with 70% ethyl alcohol. A sterile 20 ml syringe and needle are used to withdraw 20 ml of blood. The blood is immediately added to a test tube containing 3.8% sodium citrate to prevent clotting (1 part citrate to 9 parts blood).
Platelet rich plasma (PRP) was separated by centrifugation for 10 minutes at 1000 rpm (140xg) from citrated (3.8%) human blood. All glassware used for preparation of PRP is silicon treated. ADP in final concentration of 0.5 μg/mL or 0.05 mL of a collagen suspension prepared according to the method described by Evans, G., et al., J. Exp. Med., 128, 877-894, (1968) was used to induce aggregation. The various compounds tested were dissolved in dimethylsulfoxide (DMSO) so that 5 μl added to the platelet rich plasma would yield the desired test concentration. Vehicle control trials were done and compared with aggregation induced in platelet rich plasma containing various concentrations of the test compounds. Dose response curves were obtained and Inhibitor Concentration (IC50) values calculated.
The target compounds were evaluated as inhibitors of ADP-induced aggregation of human blood platelets in platelet-rich-plasma (PRP) in vitro. The test compounds were incubated at about 37° C. in PRP for about 3 minutes prior to the addition of sufficient ADP to provide a final ADP concentration of 5.86 μM.

Another series in a line: aqueous solubility. The format is physicochemical. The conditions noted are these: water, dihydrochloride salts.

One may read the IC50 as the midpoint of a concentration-inhibition curve. With `CCOC(=O)N1CCC(n2nnnc2CCCOc2ccc3nc4[nH]c(=O)[nH]c4cc3c2)CC1` [Cmpd 10a, Ethyl 4-[5-[3-(2,3-dihydro-2-oxo-1H-imidazo[4,5-b]quinolin-7-yloxy)propyl]-1H-tetrazol-1-yl]-1-piperidinecarboxylate], in series [1], the IC50 was found to be 0.2 µg/mL (≈ 0.429 µM).

Consider `CCOC(=O)N1CCC(n2nnnc2CCCCOc2ccc3nc4[nH]c(=O)[nH]c4cc3c2)CC1` [Cmpd 10b], for which, in series [1], the IC50 stood at 0.05 µg/mL (≈ 0.104 µM).

Broadly, the solubility is the dissolved amount per volume that the medium holds. Consider `Oc1nc2cc3cc(OCCCc4nnnn4C4CCNCC4)ccc3[nH]c-2n1` [Cmpd 12a, [5-[3-(2,3-Dihydro-2-oxo-1H-imidazo[4,5-b]quinolin-7-yloxy)propyl]-1H-tetrazol-1-yl]piperidine dihydrochloride], for which the IC50 in series [1] was determined as 5.4 µg/mL. Also, the solubility in “aqueous solubility” was above 20000 µg/mL.

For `Oc1nc2cc3cc(OCCCc4nnnn4C4CCN(Cc5ccccc5)CC4)ccc3[nH]c-2n1` [Cmpd 12b, [5-[3-(2,3-Dihydro-2-oxo-1H-imidazo [4,5-b]quinolin-7-yloxy)propyl]-1H-tetrazol-l-yl]-1-(phenylmethyl) piperidine dihydrochloride], the concentration for half-maximal inhibition (IC50) in series [1] turned out to be 0.022 µg/mL. For the same molecule, the solubility in the series “aqueous solubility” was above 10000 µg/mL.

Take `Oc1nc2cc3cc(OCCCc4nnnn4C4CCN(Cc5ccc(F)cc5)CC4)ccc3[nH]c-2n1` [Cmpd 12c, [5-[3-(2,3-Dihydro-2-oxo-1H-imidazo[4,5-b]quinolin-7-yloxy)propyl]-1H-tetrazol-l-yl]-1-[(4-fluorophyl)methyl]piperidine dihydrochloride]: in series [1], the IC50 worked out at 0.019 µg/mL. Further, the solubility in “aqueous solubility” is above 10000 µg/mL.

Consider `Oc1nc2cc3cc(OCCCc4nnnn4C4CCN(CC5CCCCC5)CC4)ccc3[nH]c-2n1` [Cmpd 12d, (Cyclohexylmethyl)-4-[5-[3-(2,3-dihydro-2-oxo-1H-imidazo[4,5-b]quinolin-7-yloxy)propyl]-1H-tetrazol-1-yl]piperidine dihydrochloride], for which, in series [1], the IC50 turned out to be 0.009 µg/mL. Besides, the solubility in “aqueous solubility” is above 10000 µg/mL.

Consider `CCC(CC)CN1CCC(n2nnnc2CCCOc2ccc3nc4[nH]c(=O)[nH]c4cc3c2)CC1` [Cmpd 12e, [5-[3-(2, 3 -Dihydro-2-oxo-1H-imidazo [4,5-b]quinolin-7-yloxy)propyl]-1l H-tetrazol-1-yl]-1-(2-ethylbut-1-yl) piperidine dihydrochloride], for which the IC50 in series [1] worked out at 0.007 µg/mL. For the same molecule, the solubility in “aqueous solubility” is above 10000 µg/mL.

Regarding `CC(C)CN1CCC(n2nnnc2CCCOc2ccc3nc4[nH]c(=O)[nH]c4cc3c2)CC1` [Cmpd 12f, [5-[3-(2,3-Dihydro-2-oxo-1H-imidazo[4,5-b]quinolin-7-yloxy)propyl]-1H-tetrazol-1-yl]-1-(2-methylprop-1-yl) piperidine dihydrochloride], in series [1], the IC50 stood at 0.005 µg/mL. For the same molecule, the solubility in “aqueous solubility” was above 10000 µg/mL.

As for `Oc1nc2cc3cc(OCCCc4nnnn4C4CCN(CCc5ccccc5)CC4)ccc3[nH]c-2n1` [Cmpd 12g, [5-[3-f 2,3-Dihydro-2-oxo-1H-imidazo[4,5-b]quinolin-7-yloxy)propyl]-1H-tetrazol-1-yl]-1-(2-phenylethyl) piperidine dihydrochloride], in series [1], the IC50 was determined as 0.048 µg/mL. Moreover, the solubility in “aqueous solubility” was below 5000 µg/mL.

On to `Cl.Cl.O=c1[nH]c2cc3cc(OCCCc4nnnn4C4CCN(CC5CCCC5)CC4)ccc3nc2[nH]1` [Cmpd 12h, 1-Cyclopentylmethyl-4-[5-[3-(2,3-dihydro-2-oxo-1H-imidazo[4,5-b]quinolin-7-yloxy)propyl]-1H-tetrazol-1-yl]piperidine dihydrochloride], for which the IC50 in series [1] turned out to be 0.005 µg/mL. Besides, in the series “aqueous solubility”, the solubility was in the range of 2000 to 3000 µg/mL.

For the molecule `Cl.Cl.O=c1[nH]c2cc3cc(OCCCc4nnnn4C4CCN(CC5CCCCCC5)CC4)ccc3nc2[nH]1` [Cmpd 12i, 1-Cycloheptylmethyl-4-[5-[3-(2,3-dihydro-2-oxo-1H-imidazo[4,5-b]quinolin-7-yl-oxy)propyl]-1H-tetrazol-1-yl]piperidine dihydrochloride], in series [1], the IC50 is 0.01 µg/mL. Besides, the solubility in the series “aqueous solubility” is around 1000 µg/mL.

For the molecule `CCCC(CCC)CN1CCC(n2nnnc2CCCOc2ccc3nc4[nH]c(=O)[nH]c4cc3c2)CC1` [Cmpd 12j, [5-[3-(2,3-Dihydro-2-oxo-1H-imidazo [4,5-b]quinolin-7-yloxy)propyl]-1H-tetrazol-1-yl]-1-(2-propylpent-1-yl) piperidine dihydrochloride], the IC50 in series [1] is 0.048 µg/mL. For the same molecule, the solubility in “aqueous solubility” was around 2000 µg/mL.

For the molecule `Oc1nc2cc3cc(OCCCc4nnnn4C4CCN(CC5CCCCO5)CC4)ccc3[nH]c-2n1` (stereo not drawn) [Cmpd 12k, [5-[3-(2,3-Dihydro-2-oxo-1H-imidazo[4,5-b]quinolin-7-yloxy)propyl]-1H-tetrazol-1-yl]-1-[(terahydro-2H-pyran-2-yl)methyl]piperidine dihydrochloride], in series [1], the IC50 was 0.04 µg/mL. Also, in the series “aqueous solubility”, the solubility was above 10000 µg/mL.

Regarding `Oc1nc2cc3cc(OCCCCc4nnnn4C4CCNCC4)ccc3[nH]c-2n1` [Cmpd 13a, dihydrochloride], in series [1], the IC50 is 2.6 µg/mL. Moreover, the solubility in the series “aqueous solubility” was around 5000 µg/mL.

In the case of `Oc1nc2cc3cc(OCCCCc4nnnn4C4CCN(Cc5ccccc5)CC4)ccc3[nH]c-2n1` [Cmpd 13b, dihydrochloride], the IC50 in series [1] was found to be 0.018 µg/mL. In addition, the solubility in “aqueous solubility” was above 5000 µg/mL.

For `Oc1nc2cc3cc(OCCCCc4nnnn4C4CCN(Cc5ccc(F)cc5)CC4)ccc3[nH]c-2n1` [Cmpd 13c, dihydrochloride], in series [1], the IC50 is 0.031 µg/mL. Moreover, the solubility in the series “aqueous solubility” was above 5000 µg/mL.

As to `Oc1nc2cc3cc(OCCCCc4nnnn4C4CCN(CC5CCCCC5)CC4)ccc3[nH]c-2n1` [Cmpd 13d, dihydrochloride], the IC50 in series [1] was 0.012 µg/mL. The solubility in “aqueous solubility” is above 5000 µg/mL.

As to `CCC(CC)CN1CCC(n2nnnc2CCCCOc2ccc3nc4[nH]c(=O)[nH]c4cc3c2)CC1` [Cmpd 13e, [5-[3-(2,3-Dihydro-2-oxo-1H-imidazo[4,5-b]quinolin-7-yloxy)butyl]-1H-tetrazol-1-yl]-1-(2-ethybut-1-yl) piperidine dihyudrochloride], in series [1], the IC50 amounted to 0.0068 µg/mL (≈ 0.0138 µM). Further, in “aqueous solubility”, the solubility was above 5000 µg/mL.

For the molecule `CC(C)CN1CCC(n2nnnc2CCCCOc2ccc3nc4[nH]c(=O)[nH]c4cc3c2)CC1` [Cmpd 13f, dihydrochloride], the IC50 in series [1] is 0.005 µg/mL. In “aqueous solubility”, the solubility is above 10000 µg/mL.
